The target of the test is T1, self-produced hTGase 2 (Homo sapiens, UniProt P21980).
T1 construct: thrombin cleavage site (N); made in house; host or cells: E. coli BL21(DE3)
T1 sequence (P21980 1-687): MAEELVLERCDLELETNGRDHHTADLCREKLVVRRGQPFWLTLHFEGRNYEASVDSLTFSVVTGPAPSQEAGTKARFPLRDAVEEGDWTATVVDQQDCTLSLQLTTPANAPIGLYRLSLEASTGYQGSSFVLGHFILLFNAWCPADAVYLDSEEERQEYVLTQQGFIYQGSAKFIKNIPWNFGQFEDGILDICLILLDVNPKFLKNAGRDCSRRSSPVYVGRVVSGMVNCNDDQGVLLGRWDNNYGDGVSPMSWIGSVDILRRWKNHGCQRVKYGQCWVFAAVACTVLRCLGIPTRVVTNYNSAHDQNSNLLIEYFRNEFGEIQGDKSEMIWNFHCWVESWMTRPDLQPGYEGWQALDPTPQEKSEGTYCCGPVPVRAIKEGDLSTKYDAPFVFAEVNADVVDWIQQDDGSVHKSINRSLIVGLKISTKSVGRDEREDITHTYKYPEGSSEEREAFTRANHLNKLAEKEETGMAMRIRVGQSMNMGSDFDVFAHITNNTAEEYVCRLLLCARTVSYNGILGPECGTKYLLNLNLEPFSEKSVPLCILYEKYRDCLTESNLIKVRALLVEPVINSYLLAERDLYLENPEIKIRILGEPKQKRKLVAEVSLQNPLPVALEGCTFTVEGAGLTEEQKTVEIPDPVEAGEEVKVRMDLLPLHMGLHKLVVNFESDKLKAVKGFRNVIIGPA
Description: native GTP-PAGE with increasing concentrations of inhibitor, band quantification. To be noted: 8.23 µM hTGase 2; for IC50: 50 µM GTP in gel and buffer. Format: biochemical. On the procedure:
Figure 8 Effect of increasing concentrations of inhibitor 2 on the activity and the conformation of hTGase 2. Native GTP-PAGE was performed on 7% separating gels. Both the gel and the running buffer contained 50 µM GTP without (A) and with an additional 500 µM MgCl2 (B). Samples of 8.23 µM self-produced hTGase 2 were first incubated for 30 min at 20 °C in 100 mM MOPS pH 8.0, 100 mM NaCl, 2.12% (v/v) DMSO, 5.33% (v/v) glycerol with CaCl2, GTP, MgCl2, and different concentrations of inhibitor 2, as indicated. GTP and/or MgCl2 were added as indicated, and all samples were incubated for 60 min at 20 °C. After adding native loading buffer, 6 µL of each sample containing 3 µg of hTGase 2 was loaded onto the gel. After electrophoretic separation, gels were stained with Coomassie Brilliant Blue G250, scanned, and the protein bands were quantified (Figure S7 in Supplementary Materials). Four species of hTGase 2, i.e., oligomers and slow-, intermediate-, and fast-migrating species, were identified, with slow- and intermediate-migrating species combined for the quantitative analysis. (C) Percentage of the signals of the three species per lane and (D) percentage of the oligomers’ signal plotted versus the concentration of inhibitor 2. (E) Signals of the slow-/intermediate-migrating and fast-migrating species were added and set to one. (F) Portion of the fast-migrating species in (E) was plotted against the concentration of inhibitor 2. The IC50 values in (D,F) were calculated by non-linear regression according to Equation (S29) in Supplementary Materials.
Sodium dodecyl sulfate-PAGE (SDS-PAGE) and native PAGE were performed on 4% stacking and 7% separating gels using Laemmli buffers (60 min with 120 V, 300 mA and 30 W at room temperature) and the same buffers without SDS (80 min with 120 V, 50 mA and 30 W at 4 °C), respectively. Buffers and gels were as follows: (i) for SDS-PAGE: stacking gel: 0.125 M TRIS pH 6.8, 4% (v/v) acrylamide-bisacrylamide, 0.1% (m/v) SDS; separating gel: 0.375 M TRIS pH 8.8, 7% (v/v) acrylamide-bisacrylamide, 0.1% (m/v) SDS; running buffer: 0.025 M TRIS pH 8.3, 0.2 M glycine, 0.1% (m/v) SDS; (ii) for native PAGE: the same buffers and gels were used without the addition of SDS. Native PAGE experiments, where 50 µM of GTP was added to the stacking and separating gels and the running buffer, are specified as “native GTP-PAGE” (with italic letters). In contrast, experiments without GTP are denoted as “native PAGE” (with italics letters). The term “native (GTP-)PAGE” (with italics letters) is used when we refer to both methods. Further conditions of the SDS-PAGE and native (GTP-)PAGE are detailed in the legends of Figure 7 and Figure 8 and Figures S4–S6 (Supplementary Materials). For the loading of samples onto the stacking gel, three parts of the sample solution were mixed with one part of the respective loading buffer. In the case of SDS-PAGE, SDS loading buffer (0.24 M TRIS, 40% (v/v) glycerol, 8% (m/v) SDS, 2% (v/v) 2-mercaptoethanol, and 0.08% (m/v) bromphenol blue) were used, followed by the denaturation of the mixture for 5 min at 60 °C. […] Afterward, the gels were scanned using a LI-COR Odyssey Fc Imager (700 channel) and analyzed using Image Studio software version 5.2.5. Detected bands were quantified based on the general procedure published by Wagstaff et al. and as detailed in legends to Figures S5 and S6. […]

This is an account of results in PMC9865645, “The Impact of N^ε-Acryloyllysine Piperazides on the Conformational Dynamics of Transglutaminase 2” (International Journal of Molecular Sciences, 2023).

Like-named read-outs stand apart in the source and are kept apart here.

A word on the IC50: it is the point on the concentration scale where inhibition reaches its midpoint. `C=CC(=O)NCCCC[C@H](NC(=O)Cc1ccccc1I)C(=O)N1CCN(c2ccc([N+](=O)[O-])nc2)CC1` [Compound 2, N^α-(2-Iodophenylacetyl)-N^ε-acryloyl-L-lysin-4-(2-nitropyridin-5-yl)piperazide]: the concentration for half-maximal inhibition (IC50) runs as follows: (Gel A (w/o Mg^2+), read-out: IC50, percentage of the oligomers' signal (Figure 8D)) 5.58 µM; (Gel A (w/o Mg^2+), read-out: IC50, portion of the fast-migrating (closed) species of monomeric hTGase 2 (Figure 8F)) 5.28 µM; (Gel B (with Mg^2+, 500 µM MgCl2), read-out: IC50, percentage of the oligomers' signal (Figure 8D)) 5.71 µM; (Gel B (with Mg^2+, 500 µM MgCl2), read-out: IC50, portion of the fast-migrating (closed) species of monomeric hTGase 2 (Figure 8F)) 5.68 µM. Besides, the “ratio of the IC50 and the molar enzyme concentration” value (native GTP-PAGE, calculated from values in Figure 8D,F) is recorded as 0.64–0.69.
